Laboratory results from patent US20240109865A1, “INDAZOLE COMPOUNDS AS KINASE INHIBITORS” (TYRA BIOSCIENCES, INC., priority 2020, published 2024).

Columns and labels:
Assay in all cases: Kinase assay, binding constants (Kd), kinase-tagged T7 phage, qPCR
[1] = target: FGFR1 (Homo sapiens (Human), UniProt P11362)
In short: (§1)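 Using T7 phage lysates from BL21-derived E. coli, compounds at 0.9% final DMSO competed for kinase binding to ligand-bearing magnetic beads. After elution, qPCR measured remaining kinase, and Kds were fitted by non-linear least squares with the Hill slope fixed at −1.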

[2] = target: FGFR2 (Homo sapiens (Human), UniProt P21802)
FGFR2, sequence (P21802 22-821): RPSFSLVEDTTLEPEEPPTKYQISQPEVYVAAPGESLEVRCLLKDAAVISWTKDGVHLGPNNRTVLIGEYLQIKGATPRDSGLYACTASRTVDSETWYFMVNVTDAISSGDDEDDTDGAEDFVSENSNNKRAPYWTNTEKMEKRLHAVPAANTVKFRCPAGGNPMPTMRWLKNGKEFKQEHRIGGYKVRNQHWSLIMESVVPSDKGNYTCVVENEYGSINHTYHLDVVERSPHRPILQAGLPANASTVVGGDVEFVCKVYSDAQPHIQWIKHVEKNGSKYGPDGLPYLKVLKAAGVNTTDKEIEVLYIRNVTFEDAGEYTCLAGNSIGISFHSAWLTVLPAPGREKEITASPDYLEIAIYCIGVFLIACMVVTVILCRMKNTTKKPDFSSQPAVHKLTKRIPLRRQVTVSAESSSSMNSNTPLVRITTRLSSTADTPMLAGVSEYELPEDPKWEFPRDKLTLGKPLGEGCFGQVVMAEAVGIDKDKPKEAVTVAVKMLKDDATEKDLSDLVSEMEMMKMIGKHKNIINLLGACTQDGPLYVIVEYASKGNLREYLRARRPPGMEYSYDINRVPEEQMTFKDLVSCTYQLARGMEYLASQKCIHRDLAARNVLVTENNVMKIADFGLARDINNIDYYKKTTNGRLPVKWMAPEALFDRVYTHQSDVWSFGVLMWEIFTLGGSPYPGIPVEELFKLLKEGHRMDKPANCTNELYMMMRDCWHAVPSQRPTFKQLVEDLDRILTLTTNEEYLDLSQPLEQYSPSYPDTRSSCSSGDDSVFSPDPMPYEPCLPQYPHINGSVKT
In short: as §1

[3] = target: FGFR3 (Homo sapiens (Human), UniProt P22607)
FGFR3, sequence (P22607 23-806): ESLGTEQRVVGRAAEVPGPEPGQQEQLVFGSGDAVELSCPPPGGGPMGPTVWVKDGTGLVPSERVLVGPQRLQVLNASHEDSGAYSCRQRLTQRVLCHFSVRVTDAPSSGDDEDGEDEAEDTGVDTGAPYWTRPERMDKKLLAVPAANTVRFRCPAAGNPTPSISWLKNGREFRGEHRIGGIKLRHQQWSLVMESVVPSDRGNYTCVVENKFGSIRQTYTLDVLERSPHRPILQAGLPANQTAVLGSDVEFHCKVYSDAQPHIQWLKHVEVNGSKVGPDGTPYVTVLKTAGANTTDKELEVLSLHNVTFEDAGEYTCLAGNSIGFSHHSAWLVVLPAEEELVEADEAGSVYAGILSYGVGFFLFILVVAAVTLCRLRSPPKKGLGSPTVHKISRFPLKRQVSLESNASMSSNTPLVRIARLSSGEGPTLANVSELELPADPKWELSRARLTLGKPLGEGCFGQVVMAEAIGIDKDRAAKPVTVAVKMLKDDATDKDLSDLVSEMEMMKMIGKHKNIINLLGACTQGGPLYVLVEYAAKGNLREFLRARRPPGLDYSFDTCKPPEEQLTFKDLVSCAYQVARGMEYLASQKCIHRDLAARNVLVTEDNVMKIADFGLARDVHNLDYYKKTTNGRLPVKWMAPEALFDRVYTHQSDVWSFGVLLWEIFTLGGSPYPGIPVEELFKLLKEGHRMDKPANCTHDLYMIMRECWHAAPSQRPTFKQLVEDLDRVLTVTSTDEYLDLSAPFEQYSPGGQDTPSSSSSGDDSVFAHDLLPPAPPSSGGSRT
In short: as §1

[4] = target: FGFR3 (V555M) (Homo sapiens (Human), UniProt P22607, V555M); conditions: V555M mutant
FGFR3 (V555M), sequence (P22607 23-806 V555M): as the sequence (P22607 23-806) above, with V533M counted along it
In short: as §1

[5] = target: FGFR4 (Homo sapiens (Human), UniProt P22455)
FGFR4, sequence (P22455 22-802): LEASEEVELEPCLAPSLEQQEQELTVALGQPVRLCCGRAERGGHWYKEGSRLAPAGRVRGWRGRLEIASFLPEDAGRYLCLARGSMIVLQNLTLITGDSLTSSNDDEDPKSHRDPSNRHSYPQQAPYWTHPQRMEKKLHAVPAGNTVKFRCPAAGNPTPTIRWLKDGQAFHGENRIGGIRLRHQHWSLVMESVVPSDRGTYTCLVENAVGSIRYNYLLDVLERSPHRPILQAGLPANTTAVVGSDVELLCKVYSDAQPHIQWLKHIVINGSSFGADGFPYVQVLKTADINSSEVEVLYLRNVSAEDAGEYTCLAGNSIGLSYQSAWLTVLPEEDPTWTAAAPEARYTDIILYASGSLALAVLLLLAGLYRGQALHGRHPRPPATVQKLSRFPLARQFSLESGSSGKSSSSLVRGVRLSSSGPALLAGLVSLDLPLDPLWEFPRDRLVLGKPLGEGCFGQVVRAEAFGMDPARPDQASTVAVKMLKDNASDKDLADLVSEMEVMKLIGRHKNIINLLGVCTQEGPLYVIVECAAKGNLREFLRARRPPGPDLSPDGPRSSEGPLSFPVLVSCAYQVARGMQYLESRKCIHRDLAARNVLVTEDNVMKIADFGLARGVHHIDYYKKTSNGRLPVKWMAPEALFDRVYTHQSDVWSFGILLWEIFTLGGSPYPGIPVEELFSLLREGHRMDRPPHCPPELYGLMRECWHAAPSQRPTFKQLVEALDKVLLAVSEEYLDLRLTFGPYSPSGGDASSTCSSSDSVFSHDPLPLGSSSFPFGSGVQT
In short: as §1

FGFR1, sequence (P11362 22-822): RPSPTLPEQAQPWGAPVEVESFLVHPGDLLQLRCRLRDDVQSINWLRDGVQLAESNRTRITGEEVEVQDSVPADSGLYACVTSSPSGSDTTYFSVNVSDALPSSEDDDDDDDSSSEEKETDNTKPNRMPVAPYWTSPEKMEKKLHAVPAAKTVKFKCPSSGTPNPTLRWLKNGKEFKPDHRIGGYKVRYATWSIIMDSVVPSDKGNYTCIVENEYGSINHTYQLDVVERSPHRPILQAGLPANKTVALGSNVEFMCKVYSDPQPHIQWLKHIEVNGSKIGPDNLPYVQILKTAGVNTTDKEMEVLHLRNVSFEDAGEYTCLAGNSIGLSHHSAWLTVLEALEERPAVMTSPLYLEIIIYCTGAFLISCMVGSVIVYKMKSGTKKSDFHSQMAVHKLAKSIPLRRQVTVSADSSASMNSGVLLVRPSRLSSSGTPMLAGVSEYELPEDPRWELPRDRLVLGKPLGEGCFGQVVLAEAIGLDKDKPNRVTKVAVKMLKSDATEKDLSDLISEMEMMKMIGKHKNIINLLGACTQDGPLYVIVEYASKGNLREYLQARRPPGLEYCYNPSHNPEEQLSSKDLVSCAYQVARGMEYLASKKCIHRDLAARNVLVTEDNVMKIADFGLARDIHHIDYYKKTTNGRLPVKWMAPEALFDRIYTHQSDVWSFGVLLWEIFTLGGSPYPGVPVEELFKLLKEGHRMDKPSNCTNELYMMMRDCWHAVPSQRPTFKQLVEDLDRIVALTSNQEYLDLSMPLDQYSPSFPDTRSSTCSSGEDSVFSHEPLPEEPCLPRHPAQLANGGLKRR

SMILES | Kd [1] [nM] | Kd [2] [nM] | Kd [3] [nM] | Kd [4] [nM] | Kd [5] [nM]
COc1cc2[nH]nc(-c3ccc(N4CC5(C4)CN(S(C)(=O)=O)C5)nc3)c2cc1O[C@@H](C)c1c(C)cnnc1C [Example 192, 5-[(1S)-1-(3,5-dimethylpyridazin-4-yl)ethoxy]-6-methoxy-3-[6-(2-methylsulfonyl-2,6-diazaspiro[3.3]heptan-6-yl)-3-pyridyl]-1H-indazole] | 100 to 300 | 20 to 100 | 1 to 20 | 1 to 20 | 100 to 300
COc1cc2[nH]nc(-c3cnc(N4CC[C@@H]4C)c(S(C)(=O)=O)c3)c2cc1O[C@H](C)c1c(Cl)cncc1Cl [Example 375, 5-((R)-1-(3,5-dichloropyridin-4-yl)ethoxy)-6-methoxy-3-(6-((S)-2-methylazetidin-1-yl)-5-(methylsulfonyl)pyridin-3-yl)-1H-indazole] | > 300 | > 300 | 100 to 300 | 20 to 100 | 1 to 20
C[C@@H](Oc1ccc2[nH]nc(-c3cnc(N4CCC(C(C)(C)O)CC4)c(C#N)c3)c2c1)c1c(Cl)cncc1Cl [Example 303, 5-[5-[(1R)-1-(3,5-dichloro-4-pyridyl)ethoxy]-1H-indazol-3-yl]-2-[4-(1-hydroxy-1-methyl-ethyl)-1-piperidyl]pyridine-3-carbonitrile] | 20 to 100 | 20 to 100 | 1 to 20 | 1 to 20 | 1 to 20
COc1cc2[nH]nc(-c3cnc(N4CCCC4)c(C#N)c3)c2cc1O[C@H](C)c1c(Cl)cncc1Cl [Example 333, 5-[5-[(1R)-1-(3,5-dichloro-4-pyridyl)ethoxy]-6-methoxy-1H-indazol-3-yl]-2-pyrrolidin-1-yl-pyridine-3-carbonitrile] | 100 to 300 | 100 to 300 | 20 to 100 | 1 to 20 | 1 to 20
CCOC(=O)N1CCCC2(C1)CN(c1ccc(-c3n[nH]c4ccc(O[C@H](C)c5c(C)cnnc5C)cc34)cn1)C2 [Example 182, ethyl 2-[5-[5-[(1R)-1-(3,5-dimethylpyridazin-4-yl)ethoxy]-1H-indazol-3-yl]-2-pyridyl]-2,8-diazaspiro[3.5]nonane-8-carboxylate] | 20 to 100 | 1 to 20 | 1 to 20 | 1 to 20 | 1 to 20
Cc1ncc(Cl)c([C@@H](C)Oc2ccc3[nH]nc(-c4ccc(N5CC6(CCOC6)C5)nc4)c3c2)c1Cl [Example 216, 2-[5-[5-[(1R)-1-(3,5-dichloro-2-methyl-4-pyridyl)ethoxy]-1H-indazol-3-yl]-2-pyridyl]-6-oxa-2-azaspiro[3.4]octane] | 20 to 100 | 1 to 20 | 1 to 20 | 1 to 20 | 1 to 20
C[C@@H](Oc1cc2c(-c3cnc(N4CCC4)c(S(C)(=O)=O)c3)n[nH]c2cc1Cl)c1c(Cl)cncc1Cl [Example 370, (R)-3-(6-(azetidin-1-yl)-5-(methylsulfonyl)pyridin-3-yl)-6-chloro-5-(1-(3,5-dichloropyridin-4-yl)ethoxy)-1H-indazole] | > 300 | > 300 | 20 to 100 | 20 to 100 | 20 to 100
Cc1ncc(Cl)c([C@@H](C)Oc2ccc3[nH]nc(-c4cnc(N5CC(CC(F)(F)F)C5)c(C#N)c4)c3c2)c1Cl [Example 295, 5-[5-[(1R)-1-(3,5-dichloro-2-methyl-4-pyridyl)ethoxy]-1H-indazol-3-yl]-2-[3-(2,2,2-trifluoroethyl)azetidin-1-yl]pyridine-3-carbonitrile] | > 300 | > 300 | > 300 | 100 to 300 | 20 to 100
COc1cc2[nH]nc(-c3cnc(N4CC5(C4)CN(S(C)(=O)=O)C5)nc3)c2cc1O[C@H](C)c1c(Cl)cnc(C)c1Cl [Example 240, 5-[(1R)-1-(3,5-dichloro-2-methyl-4-pyridyl)ethoxy]-6-methoxy-3-[2-(2-methylsulfonyl-2,6-diazaspiro[3.3]heptan-6-yl)pyrimidin-5-yl]-1H-indazole] | 1 to 20 | 1 to 20 | 1 to 20 | 1 to 20 | 1 to 20
C[C@@H](Oc1ccc2[nH]nc(-c3cnc(N4CC5(CCCN(S(C)(=O)=O)C5)C4)nc3)c2c1)c1c(Cl)cncc1Cl [Example 134, 5-[(1R)-1-(3,5-dichloro-4-pyridyl)ethoxy]-3-[2-(8-methylsulfonyl-2,8-diazaspiro[3.5]nonan-2-yl)pyrimidin-5-yl]-1H-indazole] | 20 to 100 | 20 to 100 | 1 to 20 | 1 to 20 | 1 to 20
Cc1ncc(Cl)c([C@@H](C)Oc2ccc3[nH]nc(-c4ccc(N5CCC[C@@H]5CO)nc4)c3c2)c1Cl [Example 232, [(2R)-1-[5-[5-[(1R)-1-(3,5-dichloro-2-methyl-4-pyridyl)ethoxy]-1H-indazol-3-yl]-2-pyridyl]pyrrolidin-2-yl]methanol] | 20 to 100 | 20 to 100 | 1 to 20 | 1 to 20 | 1 to 20
COc1cc2[nH]nc(-c3ccc(N4CCCC4)nc3)c2cc1O[C@H](C)c1c(C)cnnc1C [Example 315, (R)-5-(1-(3,5-dimethylpyridazin-4-yl)ethoxy)-6-methoxy-3-(6-(pyrrolidin-1-yl)pyridin-3-yl)-1H-indazole] | 1 to 20 | 1 to 20 | 1 to 20 | 1 to 20 | 1 to 20
COC(=O)N1CCCC2(C1)CN(c1ccc(-c3n[nH]c4ccc(O[C@H](C)c5c(C)cnnc5C)cc34)cn1)C2 [Example 187, methyl 2-[5-[5-[(1R)-1-(3,5-dimethylpyridazin-4-yl)ethoxy]-1H-indazol-3-yl]-2-pyridyl]-2,8-diazaspiro[3.5]nonane-8-carboxylate] | 1 to 20 | 1 to 20 | 1 to 20 | 1 to 20 | 1 to 20
C[C@@H](Oc1cc2c(-c3ccc(N4CC5(C4)CN(S(C)(=O)=O)C5)nc3)n[nH]c2cc1F)c1c(Cl)cncc1Cl [Example 255, (R)-5-(1-(3,5-dichloropyridin-4-yl)ethoxy)-6-fluoro-3-(6-(6-(methylsulfonyl)-2,6-diazaspiro[3.3]heptan-2-yl)pyridin-3-yl)-1H-indazole] | 1 to 20 | 1 to 20 | 1 to 20 | 1 to 20 | 1 to 20
C[C@@H](Oc1ccc2[nH]nc(-c3cnc(N4CC5(CCCNC5)C4)nc3)c2c1)c1c(Cl)cncc1Cl [Example 132, 3-[2-(2,8-diazaspiro[3.5]nonan-2-yl)pyrimidin-5-yl]-5-[(1R)-1-(3,5-dichloro-4-pyridyl)ethoxy]-1H-indazole] | 1 to 20 | 1 to 20 | 1 to 20 | 1 to 20 | 1 to 20
C[C@@H](Oc1cc2c(-c3cnc(N4CC[C@@H]4C)c(C#N)c3)n[nH]c2cc1Cl)c1c(Cl)cncc1Cl [Example 365, 5-(6-chloro-5-((R)-1-(3,5-dichloropyridin-4-yl)ethoxy)-1H-indazol-3-yl)-2-((S)-2-methylazetidin-1-yl)nicotinonitrile] | > 300 | > 300 | 100 to 300 | 100 to 300 | 20 to 100
COc1cc2[nH]nc(-c3cnc(N4CC5(CCS(=O)(=O)C5)C4)c(C#N)c3)c2cc1O[C@H](C)c1c(Cl)cncc1Cl [Example 339, (R)-5-(5-(1-(3,5-dichloropyridin-4-yl)ethoxy)-6-methoxy-1H-indazol-3-yl)-2-(6,6-dioxido-6-thia-2-azaspiro[3.4]octan-2-yl)nicotinonitrile] | 1 to 20 | 1 to 20 | 1 to 20 | 1 to 20 | 1 to 20
COc1cc2[nH]nc(-c3ccc(N4CC5CC(C4)N5)nc3)c2cc1O[C@H](C)c1c(C)cnnc1C [Example 314, 3-(5-(5-((R)-1-(3,5-dimethylpyridazin-4-yl)ethoxy)-6-methoxy-1H-indazol-3-yl)pyridin-2-yl)-3,6-diazabicyclo[3.1.1]heptane] | 1 to 20 | 1 to 20 | 1 to 20 | 1 to 20 | 1 to 20
C[C@@H](Oc1ccc2[nH]nc(-c3cnc(N4CC[C@@H](O)C4)c(C#N)c3)c2c1)c1c(Cl)cnc(F)c1Cl [Example 284, 5-(5-((R)-1-(3,5-dichloro-2-fluoropyridin-4-yl)ethoxy)-1H-indazol-3-yl)-2-((R)-3-hydroxypyrrolidin-1-yl)nicotinonitrile] | > 300 | > 300 | 100 to 300 | 20 to 100 | 20 to 100
Cc1cc(-c2n[nH]c3ccc(O[C@H](C)c4c(Cl)cnc(C)c4Cl)cc23)cnc1N1CC2(C1)CN(S(C)(=O)=O)C2 [Example 235, 5-[(1R)-1-(3,5-dichloro-2-methyl-4-pyridyl)ethoxy]-3-[5-methyl-6-(2-methylsulfonyl-2,6-diazaspiro[3.3]heptan-6-yl)-3-pyridyl]-1H-indazole] | 100 to 300 | 100 to 300 | 1 to 20 | 1 to 20 | 1 to 20
C[C@@H](Oc1ccc2[nH]nc(-c3cnc(N4CC5(CCCS(=O)(=O)C5)C4)c(C#N)c3)c2c1)c1c(Cl)cncc1Cl [Example 340, (R)-5-(5-(1-(3,5-dichloropyridin-4-yl)ethoxy)-1H-indazol-3-yl)-2-(6,6-dioxido-6-thia-2-azaspiro[3.5]nonan-2-yl)nicotinonitrile] | 100 to 300 | 100 to 300 | 1 to 20 | 100 to 300 | 1 to 20
COc1cc2[nH]nc(-c3cnc(N4CC5(C4)CN(S(C)(=O)=O)C5)nc3)c2cc1O[C@H](C)c1c(Cl)cncc1Cl [Example 239, 5-[(1R)-1-(3,5-dichloro-4-pyridyl)ethoxy]-6-methoxy-3-[2-(2-methylsulfonyl-2,6-diazaspiro[3.3]heptan-6-yl)pyrimidin-5-yl]-1H-indazole] | 1 to 20 | 1 to 20 | 1 to 20 | 1 to 20 | 1 to 20
